In the NIST ThermoML archive (doi:10.1021/acs.jced.7b00483):

Test: molar heat capacity at constant pressure
Conditions: 100 kPa, Liquid, Flow calorimetry

O [water]
Conditions | molar heat capacity at constant pressure [J/K/mol]
298.15 K | 75.66
303.15 K | 75.57
308.15 K | 75.54
313.15 K | 75.5
318.15 K | 75.47
323.15 K | 75.45
328.15 K | 75.45
333.15 K | 75.47
338.15 K | 75.5
343.15 K | 75.57
348.15 K | 75.66
353.15 K | 75.77
358.15 K | 75.9
363.15 K | 76.02
